Measured values from US8445430B2, “Cyclic carboxamide compounds and analogues thereof as of hepatitis C virus” (Achillion Pharmaceuticals, Inc., priority 2008, dated 2013).
Read-outs that look alike come from different tables or passages of the source.

System: HCV replicon in Huh-7 cells
Experiment: HCV replicon assay (NPT ELISA) for inhibition of HCV replication
Type: cell-based
Settings: Hepatitis C virus, Huh-7, 72 h, HCV replicon-containing Huh-7 cells, three days incubation
Protocol: Compounds claimed herein are tested for the ability to inhibit viral replication of the Hepatitis C replicon in cultured cells in which the HCV replicon construct has been incorporated. The HCV replicon system was described by Bartenschlager, et. al (Science, 285, pp. 110-113 (1999)). The replicon system is predictive of in vivo anti-HCV activity; compounds that are active in humans uniformly evidence activity in the replicon assay.
In this assay HCV replicon containing cells are treated with different concentrations of the test compound to ascertain the ability of the test compound to suppress replication of the HCV replicon. As a positive control, HCV replicon-containing cells are treated with different concentrations of interferon alpha, a known inhibitor of HCV replication. The replicon assay system includes Neomycin Phosphotransferase (NPT) as a component of the replicon itself in order to detect the transcription of replicon gene products in the host cell. Cells in which the HCV replicon is actively replicating have high levels of NPT; the level of NPT is proportional to HCV replication. […] The NPT level of each sample is measured using a captured ELISA.
A protocol for testing compounds for the ability to inhibit viral replication of the Hepatitis C replicon cultured cells in which the replicon construct has been incorporated, follows.
The HCV replicon contains, 5′-3′, the HCV-IRES, the neomycin phosphotransferase (neo) gene, the IRES of encephalomyocarditis virus, which directs translation of HCV sequences NS3 to NS5B, and the 3′-NTR. The sequence of the HCV replicon has been deposited in GenBank (Accession no. AJ242652).
The replicon is transfected into Huh-7 cells using standard methods such as electroporation.
The equipment and materials include, but are not limited to, Huh-7 HCV replicon-containing cells, maintenance media (DMEM (Dulbecco's modified Eagle media) supplemented with 10% FBS, L-glutamine, non-essential amino acids, penicillin (100 units/ml), streptomycin (100 micrograms/ml), and 500 micrograms/ml of Geneticin (G418), screening media (DMEM supplemented with 10% FBS, L-glutamine, non-essential amino acids, penicillin (100 units/ml) and streptomycin (100 micrograms/ml)), 96 well tissue culture plates (flat bottom), 96 well plates (U bottom for drug dilution), Interferon alpha for positive control, fixation reagent (such as methanol:acetone), primary antibody (rabbit anti-NPTII), secondary antibody: Eu-N11, and enhancement solution.
HCV replicon-containing cells support high levels of viral RNA replicon replication when their density is suitable. Over-confluency causes decreased viral RNA replication. Therefore, cells must be kept growing in log phase in the presence of 500 micrograms/ml of G418. Generally, cells should be passed twice a week at 1: 4-6 dilution. Cell maintenance is conducted as follows:
HCV replicon-containing cells are examined under a microscope to ensure that cells growing well. Cells are rinsed once with PBS and 2 ml trypsin is added. The cell/trypsin mixture is incubated at 37° C. in a CO2 incubator for 3-5 minutes. After incubation 10 ml of complete media is added to stop the trypsinization reaction. Cells are blown gently, put into a 15 ml tube, and spun at 1200 rpm for 4 minutes. The trypsin/medium solution is removed. Medium (5 ml) is added and the cells are mixed carefully. The cells are counted.
The cells are then seeded onto 96-well plates at a density of 6000-7500 cells/100 microliters/well (6-7.5×10^5 cells/10 ml/plate). The plates are then incubated at 37° C. in a 5% CO2 incubator.
Cells are examined under a microscope approximated 24 hours after seeding and prior to adding drugs. If counting and dilution were performed correctly, cells are 60-70% confluent and nearly all cells should attach and spread evenly in the well.
HCV replicon-containing cells are rinsed with once PBS once; 2 mls of trypsin are then added. Cells are incubated at 37° C. in a 5% CO2 incubator for 3-5 minutes. […]

SMILES	EC50 (read-out: EC50) [nM]	EC50 [nM]
COc1ccc2c(O[C@@H]3C[C@H]4C(=O)N[C@@]5(C(=O)NS(=O)(=O)C6CC6)C[C@@H]5/C=C\CCCC(=O)N[C@H](C(C)(C)C)C(=O)N4C3)cc(-c3ccccc3)nc2c1 [Compound 9, (2R,6R,13aR,14aS,16aS,Z)-6-tert-butyl-N-(cyclopropylsulfonyl)-2-(7-methoxy-2-phenylquinolin-4-yloxy)-5,8,16-trioxo-1,2,3,5,6,7,8,9,10,11,13a,14,14a,15,16,16a-hexadecahydrocyclopropa[n]pyrrolo[2,1-c] [1,4,7]triazacyclopentadecine-14a-carboxamide]	< 1000	–
CCOC(=O)[C@]12C[C@H]1/C=C\CCCC(=O)N[C@@H](C(C)(C)C)C(=O)N1C[C@H](Oc3cc(-c4ccccc4)nc4cc(OC)ccc34)C[C@H]1C(=O)N2 [Compound 2, (2R,6S,13aS,14aS,16aS,Z)-ethyl 6-tert-butyl-2-(7-methoxy-2-phenylquinolin-4-yloxy)-5,8,16-trioxo-1,2,3,5,6,7,8,9,10,11,13a,14,14a,15,16,16a-hexadecahydrocyclopropa[n]pyrrolo[2,1-c] [1,4,7]triazacyclopentadecine-14a-carboxylate]	> 10000	–
COc1ccc2c(O[C@@H]3C[C@H]4C(=O)N[C@]5(C(=O)NS(=O)(=O)C6CC6)C[C@H]5/C=C\CCCC(=O)N[C@H](C(C)(C)C)C(=O)N4C3)cc(-c3ccccc3)nc2c1 [Compound 5, (2R,6R,13aS,14aR,16aS,Z)-6-tert-butyl-N-(cyclopropylsulfonyl)-2-(7-methoxy-2-phenylquinolin-4-yloxy)-5,8,16-trioxo-1,2,3,5,6,7,8,9,10,11,13a,14,14a,15,16,16a-hexadecahydrocyclopropa[n]pyrrolo[2,1-c] [1,4,7]triazacyclopentadecine-14a-carboxamide]	> 10000	–
COc1ccc2c(O[C@@H]3C[C@H]4C(=O)N[C@]5(C(=O)NS(=O)(=O)C6CC6)C[C@H]5/C=C\CCCC(=O)N(C)CC(=O)N4C3)cc(-c3nc(C(C)C)cs3)nc2c1C [Compound 18, (2R,14aR,16aS,Z)-N-(cyclopropylsulfonyl)-2-(2-(4-isopropyithiazol-2-yl)-7-methoxy-8-methylquinolin-4-yloxy)-7-methyl-5,8,16-trioxo-1,2,3,5,6,7,8,9,10,11,13a,14,14a,15,16,16a-hexadecahydrocyclopropa[n]pyrrolo[2,1-c] [1,4,7]triazacyclopentadecine-14a-carboxamide]	< 1000	–
C=CCCCC(=O)N[C@@H](C(=O)N1C[C@H](Oc2cc(-c3ccccc3)nc3cc(OC)ccc23)C[C@H]1C(=O)N[C@@]1(C(=O)NS(=O)(=O)C2CC2)C[C@@H]1C=C)C(C)(C)C [Compound 8, (2S,4R)-N-((1S,2R)-1-(cyclopropylsulfonylcarbamoyl)-2-vinylcyclopropyl)-1-((R)-2-hex-5-enamido-3,3-dimethylbutanoyl)-4-(7-methoxy-2-phenylquinolin-4-yloxy)pyrrolidine-2-carboxamide]	1000 to 10000	–
COc1ccc2c(O[C@@H]3C[C@H]4C(=O)N[C@]5(C(=O)NS(=O)(=O)C6CC6)C[C@H]5/C=C\CCCC(=O)N[C@@H](CC(=O)N5CCCCC5)C(=O)N4C3)cc(-c3ccccc3)nc2c1 [Compound 15, (2R,6S,14aR,16aS,Z)-N-(cyclopropylsulfonyl)-2-(7-methoxy-2-phenylquinolin-4-yloxy)-5,8,16-trioxo-6-(2-oxo-2-(piperidin-1-yl)ethyl)-1,2,3,5,6,7,8,9,10,11,13a,14,14a,15,16,16a hexadecahydrocyclopropa[n]pyrrolo [2,1-c][1,4,7]triazacyclopentadecine-14a-carboxamide]	< 1000	–
COC(=O)CC1NC(=O)CCC/C=C\[C@@H]2C[C@@]2(C(=O)NS(=O)(=O)C2CC2)NC(=O)[C@@H]2C[C@@H](Oc3cc(-c4ccccc4)nc4cc(OC)ccc34)CN2C1=O (stereo partly drawn) [Compound 13, methyl 2-((2R,14aR,16aS,Z)-14a-(cyclopropylsulfonylcarbamoyl)-2-(7-methoxy-2-phenylquinolin-4-yloxy)-5,8,16-trioxo-1,2,3,5,6,7,8,9,10,11,13a,14,14a,15,16,16a-hexadecahydrocyclopropa[n]pyrrolo[2,1-c] [1,4,7]triazacyclopentadecin-6-yl)acetate]	1000 to 10000	–
COC(=O)C[C@@H]1NC(=O)CCC/C=C\[C@@H]2C[C@@]2(C(=O)NS(=O)(=O)C2CC2)NC(=O)[C@@H]2C[C@@H](Oc3cc(-c4ccccc4)nc4cc(OC)ccc34)CN2C1=O [Compound 12, methyl 2-((2R,6S,14aR,16aS,Z)-14a-(cyclopropylsulfonylcarbamoyl)-2-(7-methoxy-2-phenylquinolin-4-yloxy)-5,8,16-trioxo-1,2,3,5,6,7,8,9,10,11,13a,14,14a,15,16,16a-hexadecahydrocyclopropa[n]pyrrolo[2,1-c] [1,4,7]triazacyclopentadecin-6-yl)acetate]	1000 to 10000	–
COc1ccc2c(O[C@@H]3C[C@H]4C(=O)N[C@]5(C(=O)NS(=O)(=O)C6CC6)C[C@H]5/C=C\CCCC(=O)N[C@@H](CC(=O)OC(C)(C)C)C(=O)N4C3)cc(-c3nc(C(C)C)cs3)nc2c1C [Compound 16, tert-butyl 2-((2R,6S,14aR,16aS,Z)-14a-(cyclopropylsulfonylcarbamoyl)-2-(2-(4-isopropyithiazol-2-yl)-7-methoxy-8-methylquinolin-4-yloxy)-5,8,16-trioxo-1,2,3,5,6,7,8,9,10,11,13a,14,14a,15,16,16a-hexadecahydrocyclopropa[n]pyrrolo [2,1-c][1,4,7]triazacyclopentadecin-6-yl)acetate]	< 1000	≤ 10000
COc1ccc2c(O[C@@H]3C[C@H]4C(=O)N[C@]5(C(=O)NS(=O)(=O)C6CC6)C[C@H]5/C=C\CCCC(=O)N[C@@H](C(C)(C)C)C(=O)N4C3)cc(-c3nc(C(C)C)cs3)nc2c1C [Compound 19, (2R,6S,14aR,16aS,Z)-6-tert-butyl-N-(cyclopropylsulfonyl)-2-(2-(4-isopropyithiazol-2-yl)-7-methoxy-8-methylquinolin-4-yloxy)-5,8,16-trioxo-1,2,3,5,6,7,8,9,10,11,13a,14,14a,15,16,16a-hexadecahydrocyclopropa[n]pyrrolo[2,1-c] [1,4,7]triazacyclopentadecine-14a-carboxamide]	1000 to 10000	–
COc1ccc2c(O[C@@H]3C[C@H]4C(=O)NC5(C(=O)NS(=O)(=O)C6CC6)CC5/C=C\CCCC(=O)N[C@@H](CC(=O)OC(C)(C)C)C(=O)N4C3)cc(-c3ccccc3)nc2c1 (stereo partly drawn) [Compound 14, tert-butyl 2-((2R,6S,16aS,Z)-14a-(cyclopropylsulfonylcarbamoyl)-2-(7-methoxy-2-phenylquinolin-4-yloxy)-5,8,16-trioxo-1,2,3,5,6,7,8,9,10,11,13a,14,14a,15,16,16a-hexadecahydrocyclopropa[n]pyrrolo [2,1-c][1,4,7]triazacyclopentadecin-6-yl)acetate]	< 1000	–
CCOC(=O)C12CC1/C=C\CCCC(=O)N(CCCCCC(=O)O)[C@@H](C(C)(C)C)C(=O)N1C[C@H](Oc3cc(-c4ccccc4)nc4cc(OC)ccc34)C[C@H]1C(=O)N2 (stereo partly drawn) [Compound 3, 6-((2R,6S,16aS,Z)-6-tert-butyl-14a-(ethoxycarbonyl)-2-(7-methoxy-2-phenylquinolin-4-yloxy)-5,8,16-trioxo-2,3,5,6,8,9,10,11,13a,14,14a,15,16,16a-tetradecahydrocyclopropa[n]pyrrolo[2,1-c] [1,4,7]triazacyclopentadecin-7(1H)-yl)hexanoic acid]	> 10000	–
